Measurements published in EP4603105A1, “PHARMACEUTICAL COMPOSITION CONTAINING CYCLIC COMPOUND HAVING SELECTIVE KRAS INHIBITORY EFFECT AGAINST HRAS AND NRAS” (CHUGAI SEIYAKU KABUSHIKI KAISHA, priority 2022, dated 2024).
Where a SMILES comes first, the peptide text is derived from it. Bridges are numbered along the chain shown (N, C = ends). [ ]: non-standard residue; d: D form. The star is where a group is joined. hPhe(3-Cl-4-CF3) = N[C@@H](CCc1ccc(C(F)(F)F)c(Cl)c1)C(=O)O; NPrPhe(4-CF3) = CCCN[C@@H](Cc1ccc(C(F)(F)F)cc1)C(=O)O; NMeGly(cPent) = CN[C@H](C(=O)O)C1CCCC1; Gly(cPent) = N[C@H](C(=O)O)C1CCCC1; NMeD = CN[C@@H](CC(=O)O)C(=O)O; NMeL = CN[C@@H](CC(C)C)C(=O)O; Morpholide = C1CN(*)CCO1; NMeA = CN[C@@H](C)C(=O)O; Ac5c = NC1(C(=O)O)CCCC1; Aze = O=C(O)[C@@H]1CCN1; NEtG = CCNCC(=O)O; Sar = CNCC(=O)O

Key:
[1] = tested on: human lung cancer strain NCI-H441; type: cell-based
Method in brief: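 Signal came from […] measured per well once the reagent was added. Beforehand, cells were cultured at 37°C and 5% carbon dioxide on a compound series serially diluted in dimethyl sulfoxide.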

[2] = molecular target: GDP-bound NRAS wild-type protein (Homo sapiens, UniProt P01111); test: Binding to NRAS by surface plasmon resonance (SPR), KD and KD ratio to KRAS
GDP-bound NRAS wild-type protein, sequence (P01111 whole entry): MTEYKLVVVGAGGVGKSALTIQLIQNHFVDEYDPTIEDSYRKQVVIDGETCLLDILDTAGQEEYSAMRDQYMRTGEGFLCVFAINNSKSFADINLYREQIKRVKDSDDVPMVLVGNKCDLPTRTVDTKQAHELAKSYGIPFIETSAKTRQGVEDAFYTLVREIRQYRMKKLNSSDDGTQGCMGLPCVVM
Method in brief: (§1)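 Each cycle, GDP-bound biotin-Avi RAS was captured (~100–300 RU), compound concentrations were injected low to high for 75 s each at 100 µL/min, then the chip was regenerated. Buffer: HBS pH 7.4, 10 mM MgCl2, 10 µM GDP, 1 mM DTT, 4% DMSO; 30°C. KD from a 1:1 binding model.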

HRAS wild-type protein = HRAS wild-type protein (Homo sapiens, UniProt P01112); test: Binding to HRAS by surface plasmon resonance (SPR), KD and KD ratio to KRAS
HRAS wild-type protein, sequence (P01112 whole entry): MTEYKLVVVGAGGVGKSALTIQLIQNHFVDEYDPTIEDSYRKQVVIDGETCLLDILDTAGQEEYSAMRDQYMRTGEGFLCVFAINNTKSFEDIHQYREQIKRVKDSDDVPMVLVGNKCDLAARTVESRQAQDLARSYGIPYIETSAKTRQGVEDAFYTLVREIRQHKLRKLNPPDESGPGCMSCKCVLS
Method in brief: as §1

[3] = ratio of KD value for GDP-bound NRAS wild-type protein to KD value for KRAS (SPR)
[4] = ratio of KD value for HRAS wild-type protein to KD value for KRAS (SPR)
[5] = ratio of the KD value with respect to GDP-bound NRAS wild-type protein to the KD value with respect to KRAS
[6] = ratio of the KD value with respect to HRAS wild-type protein to the KD value with respect to KRAS
[7] = ratio of KD for GDP-bound NRAS wild-type protein to KD for KRAS
[8] = ratio of KD for HRAS wild-type protein to KD for KRAS

SMILES | IC50 [1] [µM] | NRAS /KRAS [2, 7] | HRAS /KRAS (HRAS wild-type protein; [8]) | also measured
CCC[C@H]1C(=O)N[C@@H]([C@@H](C)CC)C(=O)N(C)CC(=O)N(C)[C@H]2C/C=C\CCN(C2=O)[C@@H](Cc2ccc(C(F)(F)F)cc2)C(=O)N(C)CC(=O)N[C@@H](CCc2cc(F)c(C(F)(F)F)c(F)c2)C(=O)N2C[C@H](OCC)C[C@H]2C(=O)NC2(CCC2)C(=O)N(C)[C@@H](C2CCCC2)C(=O)N(C)[C@H](C(=O)N2CC3CCC(C2)O3)CC(=O)N1C [PP1315] | 0.0345 | – | – | NRAS /KRAS ([2]; ratio of KD with respect to GDP-bound NRAS wild-type protein to KD with respect to KRAS): AA (a compound having 20 or more is denoted as AA); HRAS /KRAS (HRAS wild-type protein; ratio of KD with respect to HRAS wild-type protein to KD with respect to KRAS): A (a compound having 10 or more and less than 20 is denoted as A)
CCO[C@@H]1C[C@H]2C(=O)NC3(CC(C)(C)C3)C(=O)N(CC)[C@@H](C3CCCC3)C(=O)N(C)[C@H](C(=O)N(C)C)CC(=O)N(C)[C@@H](CC)C(=O)N[C@@H]([C@@H](C)CC)C(=O)N(C)CC(=O)N(C)[C@H]3C/C=C\CCN(C3=O)[C@@H](Cc3ccc(C(F)(F)F)cc3)C(=O)N(C)CC(=O)N[C@@H](CCc3cc(F)c(C(F)(F)F)c(F)c3)C(=O)N2C1 [PP1913] | 0.044 | – | – | NRAS /KRAS [2, 5]: A (a compound having 10 or more and less than 20 is denoted as A); HRAS /KRAS (HRAS wild-type protein; [6]): A (a compound having 10 or more and less than 20 is denoted as A)
CCO[C@@H]1C[C@H]2C(=O)NC3(CCC3)C(=O)N(C)[C@@H](C3CCCC3)C(=O)N(C)[C@H](C(=O)N(C)C)CC(=O)N(C)[C@@H](CC)C(=O)N[C@@H]([C@@H](C)CC)C(=O)N3CC[C@H]3C(=O)N(C)[C@H]3CC(C)=C(C)CN(C3=O)[C@@H](Cc3ccc(C(F)(F)F)cc3)C(=O)N(C)CC(=O)N[C@@H](CCc3cc(F)c(C(F)(F)F)c(F)c3)C(=O)N2C1 [PP1049] | 0.359 | C (A compound having a KD ratio of 0.1 or more and less than 3 is denoted as C) | C (A compound having a KD ratio of 0.1 or more and less than 3 is denoted as C) | –
CCCN1C(=O)CN(C)C(=O)CN(CC)C(=O)[C@H](C2CCCC2)NC(=O)[C@H](CC(C)C)N(C)C(=O)C[C@@H](C(=O)N2CCOCC2)N(C)C(=O)[C@H](C2CCCC2)N(C)C(=O)C2(CCCC2)NC(=O)[C@@H]2CCCN2C(=O)[C@H](CCc2ccc(C(F)(F)F)c(Cl)c2)NC(=O)CN(C)C(=O)[C@@H]1Cc1ccc(C(F)(F)F)cc1 [PP0293] ([NMeL][Gly(cPent)][NEtG][Sar][NPrPhe(4-CF3)][Sar][hPhe(3-Cl-4-CF3)]P[Ac5c][NMeGly(cPent)][NMeD]-Morpholide; lactam N-11) | 0.0376 | B (a compound having 3 or more and less than 10 is denoted as B) | C (A compound having a KD ratio of 0.1 or more and less than 3 is denoted as C) | –
CCO[C@@H]1C[C@H]2C(=O)NC3(CC(C)(C)C3)C(=O)N(C)[C@@H](C3CCCC3)C(=O)N(C)[C@H](C(=O)N3CCCCC3)CC(=O)N(C)[C@H]3CC/C=C/c4ccc(cc4)C[C@@H](C(=O)N(C)CC(=O)N[C@@H](CCc4ccc(Cl)c(Cl)c4)C(=O)N2C1)N1CC/C=C\C[C@@H](C1=O)N(C)C(=O)CN(C)C(=O)[C@H]([C@@H](C)CC)NC3=O [PP2597] | 0.0201 | A (a compound having 10 or more and less than 20 is denoted as A) | A (a compound having 10 or more and less than 20 is denoted as A) | –
CCCN1C(=O)[C@@H]2CCN2C(=O)[C@H](C)N(C)C(=O)[C@H]([C@@H](C)CC)NC(=O)[C@H](CC(C)C)N(C)C(=O)C[C@@H](C(=O)N2CCOCC2)NC(=O)[C@H](C2CCCC2)N(C)C(=O)C2(CCCC2)NC(=O)[C@@H]2CCCN2C(=O)[C@H](CCc2ccc(C(F)(F)F)c(Cl)c2)NC(=O)CN(C)C(=O)[C@@H]1Cc1ccc(C(F)(F)F)cc1 [PP0343] ([NMeL]I[NMeA][Aze][NPrPhe(4-CF3)][Sar][hPhe(3-Cl-4-CF3)]P[Ac5c][NMeGly(cPent)]D-Morpholide; lactam N-11) | 0.0476 | C (A compound having a KD ratio of 0.1 or more and less than 3 is denoted as C) | B (a compound having 3 or more and less than 10 is denoted as B) | –

More lines, main results first:

IC50 [1] [µM] | SMILES | NRAS /KRAS [2, 7] | HRAS /KRAS (HRAS wild-type protein; [8]) | also measured
0.0082 | CC[C@H](C)[C@@H]1NC(=O)[C@H](CC)N(C)C(=O)C[C@@H](C(=O)N(C)C)N(C)C(=O)[C@H](C2CCCC2)N(C)C(=O)C2(CCC2)N(C)C(=O)[C@@H]2CCCN2C(=O)[C@H](CCc2cc(F)c(C(F)(F)F)c(F)c2)NC(=O)CN(C)C(=O)[C@H](Cc2ccc(C(F)(F)F)cc2)N2CC/C=C\C[C@@H](C2=O)N(C)C(=O)CN(C)C1=O [PP1780] | – | – | NRAS /KRAS [2, 3]: A (a compound having 10 or more and less than 20 is denoted as A); HRAS /KRAS (HRAS wild-type protein; [4]): A (a compound having 10 or more and less than 20 is denoted as A)
0.0154 | CCC[C@H]1C(=O)N[C@@H]([C@@H](C)CC)C(=O)N(C)CC(=O)N(C)[C@H]2C/C=C\CCN(C2=O)[C@@H](Cc2ccc(C)cc2)C(=O)N(C)CC(=O)N[C@@H](CCc2ccc(C(F)(F)F)c(Cl)c2)C(=O)N2C[C@H](OCC)C[C@H]2C(=O)NC2(CC(C)(C)C2)C(=O)N(C)[C@@H](CC(C)C)C(=O)N(C)[C@H](C(=O)N(C)C)CC(=O)N1C [PP2224] | – | – | NRAS /KRAS [2, 5]: A (a compound having 10 or more and less than 20 is denoted as A); HRAS /KRAS (HRAS wild-type protein; [6]): A (a compound having 10 or more and less than 20 is denoted as A)
0.003 | CCO[C@@H]1C[C@H]2C(=O)NC3(CC(C)(C)C3)C(=O)N(C)[C@@H](C3CCCC3)C(=O)N(C)[C@H](C(=O)N(C)C)CC(=O)N(C)[C@@H](CC(F)(F)F)C(=O)N[C@@H]([C@@H](C)CC)C(=O)N(C)CC(=O)N(C)[C@H]3C/C=C\CCN(C3=O)[C@@H](Cc3ccc(C(F)(F)F)cc3)C(=O)N(C)CC(=O)N[C@@H](CCc3ccc(C(F)(F)F)c(OC)c3)C(=O)N2C1 [PP1675] | – | – | NRAS /KRAS [2, 3]: A (a compound having 10 or more and less than 20 is denoted as A); HRAS /KRAS (HRAS wild-type protein; [4]): B (a compound having 3 or more and less than 10 is denoted as B)
0.0107 | CC[C@H](C)[C@@H]1NC(=O)[C@H](CC2CC2)N(C)C(=O)C[C@@H](C(=O)N(C)C)N(C)C(=O)[C@H](C2CCCC2)N(C)C(=O)C2(CCC2)NC(=O)[C@@H]2C[C@@H](F)CN2C(=O)[C@H](CCc2cc(F)c(C(F)(F)F)c(F)c2)NC(=O)CN(C)C(=O)[C@H](Cc2ccc(C(F)(F)F)cc2)N2CC/C=C\C[C@@H](C2=O)N(C)C(=O)CN(C)C1=O [PP1497] | – | – | NRAS /KRAS [2, 3]: A (a compound having 10 or more and less than 20 is denoted as A); HRAS /KRAS (HRAS wild-type protein; [4]): A (a compound having 10 or more and less than 20 is denoted as A)
0.0175 | CCO[C@@H]1C[C@H]2C(=O)NC3(CC(C)(C)C3)C(=O)N(C)[C@@H](C(CC)CC)C(=O)N(C)[C@H](C(=O)N(C)C)CC(=O)N(C)[C@@H](C(C)C)C(=O)N[C@@H]([C@@H](C)CC)C(=O)N(C)CC(=O)N(C)[C@H]3C/C=C\CCN(C3=O)[C@@H](Cc3ccc(C(F)(F)F)cc3)C(=O)N(C)CC(=O)N[C@@H](CCc3ccc(C(F)(F)F)c(OC)c3)C(=O)N2C1 [PP2165] | – | – | NRAS /KRAS [2, 5]: A (a compound having 10 or more and less than 20 is denoted as A); HRAS /KRAS (HRAS wild-type protein; [6]): A (a compound having 10 or more and less than 20 is denoted as A)
0.0206 | CCO[C@@H]1C[C@H]2C(=O)NC3(CCC3)C(=O)N(C)[C@@H](C3CCCC3)C(=O)N(C)[C@H](C(=O)N(C)C)CC(=O)N(C)[C@@H](CC(F)F)C(=O)N[C@@H]([C@@H](C)CC)C(=O)N(C)CC(=O)N(C)[C@H]3C/C=C\CCN(C3=O)[C@@H](Cc3ccc(C(F)(F)F)cc3)C(=O)N(C)CC(=O)N[C@@H](CCc3cc(F)c(C(F)(F)F)c(F)c3)C(=O)N2C1 [PP1120] | A (a compound having 10 or more and less than 20 is denoted as A) | A (a compound having 10 or more and less than 20 is denoted as A) | –
0.0103 | CC[C@H](C)[C@@H]1NC(=O)[C@H](CC)N(C)C(=O)C[C@@H](C(=O)N(C)C)N(C)C(=O)[C@H](C2CCCC2)N(C)C(=O)C2(CCC2)NC(=O)[C@@H]2CCCCN2C(=O)[C@H](CCc2cc(F)c(C(F)(F)F)c(F)c2)NC(=O)CN(C)C(=O)[C@H](Cc2ccc(C(F)(F)F)cc2)N2CCCC[C@@H](C2=O)N(C)C(=O)CN(C)C1=O [PP0658] | – | – | NRAS /KRAS [2, 5]: C (A compound having a KD ratio of 0.1 or more and less than 3 is denoted as C); HRAS /KRAS (HRAS wild-type protein; [6]): B (a compound having 3 or more and less than 10 is denoted as B)
0.0187 | CCO[C@@H]1C[C@H]2C(=O)NC3(CCC3)C(=O)N(C)[C@@H](C3CCCC3)C(=O)N(C)[C@H](C(=O)N3CCOCC3)CC(=O)N(C)[C@@H](CC(C)C)C(=O)N[C@@H]([C@@H](C)CC)C(=O)N3CC[C@H]3C(=O)N(C)[C@H]3CC(C)=CCN(C3=O)[C@@H](Cc3ccc(C(F)(F)F)cc3)C(=O)N(C)CC(=O)N[C@@H](CCc3cc(F)c(C(F)(F)F)c(F)c3)C(=O)N2C1 [PP1040] | C (A compound having a KD ratio of 0.1 or more and less than 3 is denoted as C) | C (A compound having a KD ratio of 0.1 or more and less than 3 is denoted as C) | –
0.0364 | CCO[C@@H]1C[C@H]2C(=O)NC3(CCC3)C(=O)N(C)[C@@H](C3CCCC3)C(=O)N(C)[C@H](C(=O)N(C)CC)CC(=O)N(C)[C@@H](CC)C(=O)N[C@@H]([C@@H](C)CC)C(=O)N(C)CC(=O)N(C)[C@H]3C/C=C\CCN(C3=O)[C@@H](Cc3ccc(C)cc3)C(=O)N(C)CC(=O)N[C@@H](CCc3ccc(C(F)(F)F)c(OC)c3)C(=O)N2C1 [PP1869] | – | – | NRAS /KRAS [2, 3]: A (a compound having 10 or more and less than 20 is denoted as A); HRAS /KRAS (HRAS wild-type protein; [4]): A (a compound having 10 or more and less than 20 is denoted as A)
